# Measurements as given in article PMC8744835, “Sterically Hindered Quaternary Phosphonium Salts (QPSs): Antimicrobial Activity and Hemolytic and Cytotoxic Properties” (International Journal of Molecular Sciences, 2021).
# Tests used:
# S. aureus = assay: Zone-of-inhibition test of coated PC+ plastic sample; format: cell-based, Staphylococcus aureus; conditions: PC+ sample immersed 1 min in 1% solution of 12a in ethanol, 37 °C 24 h
# Description: (§1) The inhibition-zone test is a quick and qualitative way to measure the ability of an antimicrobial agent to suppress microbial growth. The sensitivity of the method is quite high and even a small amount of residual biocide in a model system can be detected. […] In this experiment, we used cultures of the bacteria P. aeruginosa and S. aureus. First, the microbial suspension was spread on a sterile agar plate. Then, a plastic sample (PC+), which was preliminarily immersed for 1 min in a 1% solution of compound 12a in ethanol, was placed in the center of the Petri dish with agar. During the incubation period, the inoculum bacteria can only grow where is no antimicrobial agent. If the active agent is washed out of the sample into the environment (in this case, agar), bacterial growth in the area around the sample is suppressed. The width of this area is determined by the diffusion of the active compound in the vicinity. […] From the results obtained, it is clear that a relatively stable surface coating was achieved using a simple experimental procedure.
# (§2) This sample was tested for possible release of the active compound. Tests were performed on a culture of Gram-negative bacteria P. aeruginosa and Gram-positive bacteria S. aureus. […] Then, Petri dishes were placed in an incubator at 37 °C for 24 h, and the presence of inhibition zones was evaluated.
# [1] = test system: methicillin-resistant S. aureus MRSA-2; assay: Antimicrobial activity, serial dilution technique in Mueller–Hinton Broth 2; format: cell-based, Staphylococcus aureus; conditions: - means non-active
# Outline: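 Antimicrobial activity against methicillin-susceptible Staphylococcus aureus MRSA-2, a beta-lactam-resistant clinical isolate from a sinusitis patient at the Republican Clinical Hospital (Kazan), was assessed by serial dilution in Mueller–Hinton Broth 2. The inoculum was 3.0 × 10^5 cfu/mL. Cultures were incubated at 37 °C and read every 24 h for 5 days, in three repeat experiments.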
# S. aureus 209 P = assay: Bactericidal properties of coated plastic samples; format: cell-based, Staphylococcus aureus; conditions: for CFU/cm^2, Nylon: Nylon plastic
# Description: The plastic samples, which were 10 mm × 10 mm × 2 mm, were preliminary sterilized and placed into an ethanolic solution of 12a for 1 min. Then, the studied and control (without coating) samples were immersed in bacterial suspensions with a known concentration of bacteria (10^5–10^8 bacteria/mL) for 24 h, and the number of viable micro-organisms was then estimated.
# The plastic samples, which were 10 mm × 10 mm × 2 mm plates, were sterilized in a medical autoclave, HG-50 (Hirayama, Japan), at 121 °C for 20 min. Then, each sample was immersed in an ethanolic solution of compound 12a at concentrations of 0.01 and 0.001% for 1 min and air dried. After treatment, the plastic samples were placed in 24-well plates with 1 sample/well. Then, 1 mL of S. aureus 209 P suspension (10^5 bacteria/mL) was added to each well. The plastic control samples were not treated with compound 12a. The culture of Staphylococcus aureus 209 P was grown for a day at 37 °C in Mueller–Hinton Broth 2. Active daily growing cultures were diluted in physiological saline (NaCl 9.0 g/L) to a concentration of 10^5 bacteria/mL and then distributed into 25-well plates containing 1 cm^2 of coating/well, with the exception of an uncoated control well. After a 24-h incubation period at 37 °C, dilution series were performed for each treatment, and 100 μL volumes of 3 dilutions were plated on sterile Mueller–Hinton agar. After 24 h, the number of colonies on each plate was counted to obtain the corresponding concentration of live bacteria.
# [2] = test system: Candida albicans ATCC 10231; assay: Fungicidal activity, serial dilution technique; format: cell-based; conditions: average of three ± SD, - means non-active
# Outline: (§3)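 Inoculum 3.0 × 10^5 cfu/mL; serial dilution, MH Broth 2; 37 °C; read q24 h × 5 d; MIC = lowest inhibitory conc.; n = 3.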
# [3] = test system: Trichophyton mentagrophytes var. gypseum 1773; assay: Fungicidal activity, serial dilution technique; format: cell-based; conditions: Tm; average of three ± SD; - means non-active
# Outline: as §3
# P. aeruginosa = assay: Zone-of-inhibition test of coated PC+ plastic sample; format: cell-based, Pseudomonas aeruginosa; conditions: PC+ sample immersed 1 min in 1% solution of 12a in ethanol, 37 °C 24 h
# Description: as §1, §2
structure (smiles),measurement,setting,value
"CCCCCCCCCCCC[P+](C(C)(C)C)(C(C)(C)C)C(C)(C)C [Compound 12a, tri-tert-butyl(n-dodecyl)phosphonium]",zone of inhibition,S. aureus,no zones of inhibition
same,"Minimum Bactericidal and Fungicidal Concentration (MBC, MFC), MRSA-2",[1]; MRSA-2,7.8 ± 0.6 µg/mL
same,MIC,"[1]; Staphylococcus aureus, MRSA, MRSA-2 (resistant to beta-lactams), read-out: Minimum Inhibitory Concentration (MIC), MRSA-2",0.5 ± 0.03 µg/mL
same,bacterial growth on coated plastic,"S. aureus 209 P; 12a at a concentration of 0.01%, ABS, PLA natural and PETG plastics",complete absence of bacterial growth
same,"CFU/cm^2, ABS","S. aureus 209 P; ABS plastic, 12a 0.001%, 24 h incubation with 10^5 S. aureus 209 P",2.5 × 10^3 CFU/cm^2
same,"CFU/cm^2, Nylon","S. aureus 209 P; 12a 0.001%, 24 h incubation with 10^5 S. aureus 209 P",3.2 × 10^4 CFU/cm^2
same,"CFU/cm^2, Nylon","S. aureus 209 P; 12a 0.01%, 24 h incubation with 10^5 S. aureus 209 P",2.0 × 10^2 CFU/cm^2
same,"CFU/cm^2, PC+","S. aureus 209 P; PC+ plastic, 12a 0.001%, 24 h incubation with 10^5 S. aureus 209 P",1.2 × 10^4 CFU/cm^2
same,"CFU/cm^2, PETG","S. aureus 209 P; PETG plastic, 12a 0.001%, 24 h incubation with 10^5 S. aureus 209 P",1.8 × 10^3 CFU/cm^2
same,decrease of bacterial cell concentration compared to the control,"S. aureus 209 P; PETG, 12a 0.001%",27 times
same,"CFU/cm^2, PLA Natural","S. aureus 209 P; PLA Natural plastic, 12a 0.001%, 24 h incubation with 10^5 S. aureus 209 P",5.0 × 10^3 CFU/cm^2
same,"CFU/cm^2, PLA+","S. aureus 209 P; PLA+ plastic, 12a 0.001%, 24 h incubation with 10^5 S. aureus 209 P",1.6 × 10^4 CFU/cm^2
same,"Minimum Bactericidal and Fungicidal Concentration (MBC, MFC), Ca",[2]; Ca,31.3 ± 2.7 µg/mL
same,MIC,"[2]; Candida albicans, ATCC10231, Ca, read-out: Minimum Inhibitory Concentration (MIC), Ca",15.6 ± 1.4 µg/mL
same,"Minimum Bactericidal and Fungicidal Concentration (MBC, MFC), Tm",[3],15.6 ± 1.3 µg/mL
same,"Minimum Inhibitory Concentration (MIC), Tm",[3],15.6 ± 1.2 µg/mL
same,zone of inhibition,P. aeruginosa,no zones of inhibition
